Results published in patent US20120073988A1, “Sensor for Measurement of Hydrogen Sulfide” (priority 2004, published 2012).

Key:
[1] = H2S→H++HS−; HS−→S2−+H+; cited from earlier work
[2] = tested on: enzyme in the blood vessels that is responsible for H2S production (rat aorta homogenate, VSMC, intact tail artery); assay: Real-time H2S production in rat vascular samples supplied with L-cysteine and PLP; format: biochemical; conditions: added after L-cysteine and PLP; FIG. 6
Text: In general, the following biological samples are bathed in the potassium phosphate buffer (PBS) described above. The specific procedures are found in Doeller, J. E., Isbell, T. S., Benavides, G., Koenitzer, J., Patel, H., Patel, P. P., Lancaster, J. R. Jr., Darley-Usmar, V. M., and Kraus, D. W.; Polarographic measurement of hydrogen sulfide production and consumption by mammalian tissues; Anal. Biochem.; (2005) 341: 40-51, the contents of which are incorporated by reference herein.
FIG. 6 illustrates measurement of real-time H2S production in rat aorta homogenate (Aorta homogenate), cultured rat vascular smooth muscle cells (VSMC) and living rat tail artery (Intact Tail Artery). After supplying each of the samples with the amino acid L-cysteine and the vitamin pyridoxal […] (PLP), both substrate and cofactor respectively, for the enzyme in the blood vessels that is responsible for H2S production, a rise in solution H2S concentration is observed.

[3] = tested on: mitochondria isolated from marine mussel gills; assay: O2 consumption of a mitochondria suspension isolated from mussel gills in a closed chamber; parameters: species or system ribbed mussel Geukensia demissa; conditions: injections of 12.5 μM sulfide, FIG. 5A
Text: The cellular organelle responsible for O2 consumption in biological cells is the mitochondrion. […] Such rapid kinetic events could not be adequately followed with standard colorimetric methods for H2S determination.
Mitochondria were isolated using the isolation procedure referenced in Parrino, V., D. W. Kraus and J. E. Doeller; ATP production from the oxidation of sulfide in gill mitochondria of the ribbed mussel Geukensia demissa; J. Exp. Biol.; (2000) 203:2209-2218, the contents of which are incorporated by reference herein. The mitochondria were suspended in an aqueous salt- and sucrose-containing buffer described in the Parrino reference.
In FIG. 5A two traces show the real-time concentrations of H2S and O2 in a closed chamber containing a mitochondria suspension isolated from mussel gills. The lower trace is H2S concentration and the upper trace is O2 concentration from a different sensor. […] As the chamber O2 is exhausted the sulfide is consumed much more slowly. In FIG. 5B the derivatives (H2S as lower trace and O2 as upper trace) of the traces in FIG. 5A are shown.

[4] = tested on: isolated rat aorta; assay: Vessel tension organ bath with isolated rat aorta segments; conditions: aorta pre-contracted with 100 nM phenylephrine; FIG. 7
Procedure: Individual segments, 4 mm long and 1.5 mm in diameter, are tethered between the bath floor and a sensitive force transducer above the bath in order to measure any vasorelaxation as a decrease in tension. An electrochemical H2S sensor (PHSS) is also immersed in the bath to simultaneously report the H2S concentration. The aorta vessels are first contracted by adding 100 nM phenylephrine, PE, to the bath to stimulate physiological vessel tension. […] Measurement of such an acute response of blood vessels to H2S concentration is only possible with the hydrogen sulfide detection apparatus comprising the PHSS.

SMILES: S [HS^−]
- pKa [1]: 14.15

SMILES: S [H2S, Hydrogen sulfide]
- pKa [1]: 6.88

SMILES: N#CC[C@H](N)C(=O)O [BCA, beta-cyanoalanine]
- effect on H2S production [2]: limit any further H2S production

SMILES: [Na+].[Na+].[S-2] [Na2S]
- effect on O2 consumption [3]: stimulate O2 consumption
- vessel tension (vasorelaxation) [4]: immediate vasorelaxation event
